Test results: ChEMBL document CHEMBL4382259, “Synthesis of novel guttiferone E and xanthochymol derivatives with cytotoxicities by inducing cell apoptosis and arresting the cell cycle phase” (Eur J Med Chem, 2019)
Active and inactive are the calls of the source. No cut-off for these calls is given here.

Experiments:
HEL [1] = test: Induction of apoptosis in HEL cells assessed as early apoptotic cells at 5 uM after 24 hrs by Annexin V-FITC/propidium iodide staining based flow cytometry (reference value: 9.9%); type: functional, Homo sapiens
HeLa = test: Antiproliferative activity against human HeLa cells after 72 hrs by MTT assay; type: functional, cell-based
HEL [2] = test: Induction of apoptosis in HEL cells assessed as necrotic cells at 2.5 uM after 24 hrs by Annexin V-FITC/propidium iodide staining based flow cytometry (reference value: 0.2%); type: functional, Homo sapiens
HEL [3] = test: Induction of apoptosis in HEL cells assessed as early apoptotic cells at 2.5 uM after 48 hrs by Annexin V-FITC/propidium iodide staining based flow cytometry (reference value: 8%); type: functional, Homo sapiens
HEL [4] = test: Cell cycle arrest in HEL cells assessed as accumulation at G2/M phase at 5 uM after 48 hrs propidium iodide staining based flow cytometry (reference value: 14.33%); type: functional, Homo sapiens
HEL [5] = test: Up regulation of Bax expression in HEL cells after 24 hrs by Western blot analysis; type: functional, cell-based; settings: Homo sapiens
HEL [6] = test: Induction of apoptosis in HEL cells assessed as late apoptotic cells at 10 uM after 24 hrs by Annexin V-FITC/propidium iodide staining based flow cytometry (reference value: 1.2%); type: functional, Homo sapiens
HEL [7] = test: Induction of morphological changes in HEL cells assessed as cell fragmentation at 5 uM after 48 hrs by microscopic analysis; type: functional, cell-based; settings: Homo sapiens
HEL [8] = test: Down regulation of full-length PARP1 expression in HEL cells at 2.5 to 10 uM after 24 hrs by Western blot analysis; type: functional, cell-based; settings: Homo sapiens
HEL [9] = test: Induction of apoptosis in HEL cells assessed as viable cells at 10 uM after 48 hrs by Annexin V-FITC/propidium iodide staining based flow cytometry (reference value: 88.3%); type: functional; settings: Homo sapiens, read-out: Activity
HEL [10] = test: Induction of apoptosis in HEL cells assessed as viable cells at 5 uM after 48 hrs by Annexin V-FITC/propidium iodide staining based flow cytometry (reference value: 88.3%); type: functional; settings: Homo sapiens, read-out: Activity
HEL [11] = test: Induction of apoptosis in HEL cells assessed as necrotic cells at 10 uM after 48 hrs by Annexin V-FITC/propidium iodide staining based flow cytometry (reference value: 0.5%); type: functional, Homo sapiens
HEL [12] = test: Up regulation of cleaved caspase3 expression in HEL cells at 2.5 to 10 uM after 24 hrs by Western blot analysis; type: functional, cell-based; settings: Homo sapiens
HEL [13] = test: Induction of apoptosis in HEL cells assessed as late apoptotic cells at 5 uM after 24 hrs by Annexin V-FITC/propidium iodide staining based flow cytometry (reference value: 1.2%); type: functional, Homo sapiens
HEL [14] = test: Induction of apoptosis in HEL cells assessed as viable cells at 5 uM after 24 hrs by Annexin V-FITC/propidium iodide staining based flow cytometry (reference value: 88.6%); type: functional; settings: Homo sapiens, read-out: Activity
HEL [15] = test: Induction of apoptosis in HEL cells assessed as early apoptotic cells at 10 uM after 48 hrs by Annexin V-FITC/propidium iodide staining based flow cytometry (reference value: 8%); type: functional, Homo sapiens
HEL [16] = test: Induction of apoptosis in HEL cells assessed as early apoptotic cells at 5 uM after 48 hrs by Annexin V-FITC/propidium iodide staining based flow cytometry (reference value: 8%); type: functional, Homo sapiens
HEL [17] = test: Induction of apoptosis in HEL cells assessed as necrotic cells at 10 uM after 24 hrs by Annexin V-FITC/propidium iodide staining based flow cytometry (reference value: 0.2%); type: functional, Homo sapiens
HEL [18] = test: Induction of apoptosis in HEL cells assessed as late apoptotic cells at 10 uM after 48 hrs by Annexin V-FITC/propidium iodide staining based flow cytometry (reference value: 3.3%); type: functional, Homo sapiens
HEL [19] = test: Induction of morphological changes in HEL cells assessed as cell shrinkage at 5 uM after 48 hrs by microscopic analysis; type: functional, cell-based; settings: Homo sapiens
HEL [20] = test: Induction of apoptosis in HEL cells assessed as necrotic cells at 5 uM after 48 hrs by Annexin V-FITC/propidium iodide staining based flow cytometry (reference value: 0.5%); type: functional, Homo sapiens
K562 = test: Antiproliferative activity against human K562 cells after 72 hrs by MTT assay; type: functional, cell-based; settings: K562, 72 h
HEL [21] = test: Induction of apoptosis in HEL cells assessed as viable cells at 2.5 uM after 24 hrs by Annexin V-FITC/propidium iodide staining based flow cytometry (reference value: 88.6%); type: functional; settings: Homo sapiens, read-out: Activity
HEL [22] = test: Cell cycle arrest in HEL cells assessed as accumulation at S phase at 5 uM after 48 hrs propidium iodide staining based flow cytometry (reference value: 45.65%); type: functional, Homo sapiens
A549 = test: Antiproliferative activity against human A549 cells after 72 hrs by MTT assay; type: functional, cell-based; settings: A549, 72 h
HEL [23] = test: Induction of apoptosis in HEL cells assessed as late apoptotic cells at 2.5 uM after 24 hrs by Annexin V-FITC/propidium iodide staining based flow cytometry (reference value: 1.2%); type: functional, Homo sapiens
HEL [24] = test: Induction of cell death in HEL cells at 10 uM after 48 hrs by microscopic analysis; type: functional, cell-based; settings: Homo sapiens
HEL [25] = test: Induction of apoptosis in HEL cells assessed as necrotic cells at 2.5 uM after 48 hrs by Annexin V-FITC/propidium iodide staining based flow cytometry (reference value: 0.5%); type: functional, Homo sapiens
HEL [26] = test: Induction of apoptosis in HEL cells assessed as viable cells at 2.5 uM after 48 hrs by Annexin V-FITC/propidium iodide staining based flow cytometry (reference value: 88.3%); type: functional; settings: Homo sapiens, read-out: Activity
HEL [27] = test: Induction of morphological changes in HEL cells at 2.5 uM after 48 hrs by microscopic analysis; type: functional, cell-based; settings: Homo sapiens
HEL [28] = test: Cell cycle arrest in HEL cells assessed as accumulation at G0/G1 phase at 5 uM after 48 hrs propidium iodide staining based flow cytometry (reference value: 37.72%); type: functional, Homo sapiens
HEL [29] = test: Down regulation of Bcl2 expression in HEL cells after 24 hrs by Western blot analysis; type: functional, cell-based; settings: Homo sapiens
HEL [30] = test: Induction of apoptosis in HEL cells assessed as late apoptotic cells at 2.5 uM after 48 hrs by Annexin V-FITC/propidium iodide staining based flow cytometry (reference value: 3.3%); type: functional, Homo sapiens
HEL [31] = test: Induction of apoptosis in HEL cells assessed as early apoptotic cells at 10 uM after 24 hrs by Annexin V-FITC/propidium iodide staining based flow cytometry (reference value: 9.9%); type: functional, Homo sapiens
HEL [32] = test: Antiproliferative activity against HEL cells after 72 hrs by MTT assay; type: functional, cell-based; settings: Homo sapiens
MCF7 = test: Antiproliferative activity against human MCF7 cells after 72 hrs by MTT assay; type: functional, cell-based; settings: MCF7, 72 h
HEL [33] = test: Induction of apoptosis in HEL cells assessed as early apoptotic cells at 2.5 uM after 24 hrs by Annexin V-FITC/propidium iodide staining based flow cytometry (reference value: 9.9%); type: functional, Homo sapiens
HEL [34] = test: Induction of apoptosis in HEL cells assessed as late apoptotic cells at 5 uM after 48 hrs by Annexin V-FITC/propidium iodide staining based flow cytometry (reference value: 3.3%); type: functional, Homo sapiens
HEL [35] = test: Down regulation of cyclin D1 expression in HEL cells at 2.5 to 10 uM after 24 hrs by Western blot analysis; type: functional, cell-based; settings: Homo sapiens
HEL [36] = test: Induction of apoptosis in HEL cells assessed as necrotic cells at 5 uM after 24 hrs by Annexin V-FITC/propidium iodide staining based flow cytometry (reference value: 0.2%); type: functional, Homo sapiens
HEL [37] = test: Induction of apoptosis in HEL cells assessed as viable cells at 10 uM after 24 hrs by Annexin V-FITC/propidium iodide staining based flow cytometry (reference value: 88.6%); type: functional; settings: Homo sapiens, read-out: Activity

## CC(C)=CC[C@H]1C[C@]23C[C@@H](CC=C(C)C)C(C)(C)[C@H]4CCC(C)(C)O[C@]42OC(=O)C(C(=O)c2ccc(O)c(O)c2)=C3OC1(C)C
HEL [1]
  Activity: 15.3%
HeLa
  IC50: > 20 µM
HEL [2]
  Activity: 0.4%
HEL [3]
  Activity: 7.2%
HEL [4]
  Activity: 10.76%
HEL [5]
  Activity: Dose-dependent effect
HEL [6]
  Activity: 3%
HEL [7]
  Activity: Active
HEL [8]
  Activity: Active
HEL [9]
  viability at 10 µM: 49.2%
HEL [10]
  viability at 5 µM: 72.6%
HEL [11]
  Activity: 2.4%
HEL [12]
  Activity: Active
HEL [13]
  Activity: 3.3%
HEL [14]
  viability at 5 µM: 80.9%
HEL [15]
  Activity: 32.5%
HEL [16]
  Activity: 21%
HEL [17]
  Activity: 0.8%
HEL [18]
  Activity: 15.9%
HEL [19]
  Activity: Active
HEL [20]
  Activity: 0.6%
K562
  IC50: 7.69 µM
HEL [21]
  viability at 2.5 µM: 86.6%
HEL [22]
  Activity: 28.81%
A549
  IC50: > 20 µM
HEL [23]
  Activity: 2.3%
HEL [24]
  Activity: Active
HEL [25]
  Activity: 1.6%
HEL [26]
  viability at 2.5 µM: 84.8%
HEL [27]
  Activity: Active
HEL [28]
  Activity: 59.29%
HEL [29]
  Activity: Dose-dependent effect
HEL [30]
  Activity: 6.4%
HEL [31]
  Activity: 34.6%
HEL [32]
  IC50: 4.79 µM
MCF7
  IC50: 13.5 µM
HEL [33]
  Activity: 10.6%
HEL [34]
  Activity: 5.8%
HEL [35]
  Activity: Active
HEL [36]
  Activity: 0.4%
HEL [37]
  viability at 10 µM: 61.6%
